The source of these data is US20250186437A1, “CARBOLINE COMPOUNDS AND USE THEREOF” (PTC Therapeutics, Inc., priority 2021, published 2025).

By IC50 is commonly meant the concentration that gives 50% inhibition. Lower therefore signals higher potency.

Each structure is given as a SMILES string.

The test system of this assay is MOLM-13 cells. In words: MOLM-13 Cell Proliferation Assay (indicator of DHODH inhibition). Type of assay: cell-based. The settings on record: 72 Hours of culture, CellTiter-Glo, no uridine. In short, it runs like this: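 Proliferation readout via CellTiter-Glo luminescence after 72 h compound treatment (37 °C, 5% CO2, 0.5% DMSO) of MOLM-13 cells seeded at 10^4 per well in RPMI 1640/10% FBS, used as a DHODH-inhibition indicator since these cells rely on de novo pyrimidine synthesis.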
(In general: In ATP-based viability assays light output follows the ATP content of the culture.)

`Fc1c(Cl)ccc2[nH]c3c(c12)CCN(c1nccc(C(F)(F)F)n1)C3c1cccnc1` (centres unmarked) [Compound 202, 6-chloro-5-fluoro-1-(pyridin-3-yl)-2-[4-(trifluoromethyl)pyrimidin-2-yl]-2,3,4,9-tetrahydro-1H-pyrido[3,4-b]indole] came in with an IC50 (Homo sapiens) of 16.2 nM. This counts as double-digit nanomolar.

The compound `Fc1ccc(C2c3[nH]c4ccc(F)c(F)c4c3CCN2c2ncc(Cl)cn2)cc1` (centres unmarked) [Compound 85, 2-(5-chloropyrimidin-2-yl)-5,6-difluoro-1-(4-fluorophenyl)-2,3,4,9-tetrahydro-1H-pyrido[3,4-b]indole] displayed an IC50 (Homo sapiens) of 162 nM.

For the setting “Homo sapiens”, `COC(=O)CCc1ccc(C2c3[nH]c4cc(F)c(Cl)cc4c3CCN2c2ncc(F)cn2)cc1` (centres unmarked) [Compound 165, methyl 3-{4-[6-chloro-7-fluoro-2-(5-fluoropyrimidin-2-yl)-2,3,4,9-tetrahydro-1H-pyrido[3,4-b]indol-1-yl]phenyl}propanoate] had an IC50 of 16.7 nM.

Compound `FC(F)(F)c1ccnc(N2CCc3c([nH]c4ccc(Cl)cc34)C2c2ccc(N3CCOCC3)nc2)n1` (centres unmarked) [Compound 303, 6-chloro-1-[6-(morpholin-4-yl)pyridin-3-yl]-2-[4-(trifluoromethyl)pyrimidin-2-yl]-2,3,4,9-tetrahydro-1H-pyrido[3,4-b]indole] showed an IC50 (Homo sapiens) of 2.5 nM. This IC50 is about 6.7-fold lower than that of the compound before.

`N#Cc1nc(N2CCc3c([nH]c4cc(F)c(Cl)cc34)C2c2cccc(F)c2F)ncc1F` (centres unmarked) [Compound 183, 2-[6-chloro-1-(2,3-difluorophenyl)-7-fluoro-1,3,4,9-tetrahydro-2H-pyrido[3,4-b]indol-2-yl]-5-fluoropyrimidine-4-carbonitrile]: the IC50 (Homo sapiens) is 4.5 nM.

For `Cc1ccc([C@H]2c3[nH]c4ccc(Cl)cc4c3CCN2c2ncc(F)c(C#N)n2)c(F)c1F` [Compound 385, 2-[(1S)-6-chloro-1-(2,3-difluoro-4-methylphenyl)-1,3,4,9-tetrahydro-2H-pyrido[3,4-b]indol-2-yl]-5-fluoropyrimidine-4-carbonitrile], the IC50 (Homo sapiens) was determined as 2.2 nM.

With `Fc1cccc(C2c3[nH]c4ccc(Cl)cc4c3CCN2c2nccc(C(F)(F)F)n2)c1F` (centres unmarked) [Compound 119, 6-chloro-1-(2,3-difluorophenyl)-2-[4-(trifluoromethyl)pyrimidin-2-yl]-2,3,4,9-tetrahydro-1H-pyrido[3,4-b]indole], half-maximal inhibition (Homo sapiens) (IC50) required 2.2 nM.

Under “Homo sapiens”, `OCCCc1ccc(C2c3[nH]c4cc(F)c(Cl)cc4c3CCN2c2ncc(F)cn2)cc1` (centres unmarked) [Compound 159, 3-{4-[6-chloro-7-fluoro-2-(5-fluoropyrimidin-2-yl)-2,3,4,9-tetrahydro-1H-pyrido[3,4-b]indol-1-yl]phenyl}propan-1-ol] returned an IC50 of 27.1 nM.

Compound `COC(=O)c1ncc([C@H]2c3[nH]c4ccc(Cl)cc4c3CCN2c2nc(C(F)(F)F)nc(C(F)(F)F)n2)cn1` [Compound 532, methyl 5-{(1S)-2-[4,6-bis(trifluoromethyl)-1,3,5-triazin-2-yl]-6-chloro-2,3,4,9-tetrahydro-1H-pyrido[3,4-b]indol-1-yl} pyrimidine-2-carboxylate] registered an IC50 of 8.1 nM. In other words, the single-digit nanomolar range.

Turning to `Oc1cc2[nH]c3c(c2cc1Cl)CCN(c1nccc(C(F)(F)F)n1)C3c1ccc(Cl)cc1` (centres unmarked) [Compound 250, 6-chloro-1-(4-chlorophenyl)-2-[4-(trifluoromethyl)pyrimidin-2-yl]-2,3,4,9-tetrahydro-1H-pyrido[3,4-b]indol-7-ol], for the setting “Homo sapiens”, inhibition was half-maximal at 86.1 nM (IC50). That is a double-digit nanomolar value.

In turn, `Fc1c(Cl)ccc2[nH]c3c(c12)CCN(c1nccc(C(F)(F)F)n1)C3c1ccc(Cl)cc1` (centres unmarked) [Compound 73, 6-chloro-1-(4-chlorophenyl)-5-fluoro-2-[4-(trifluoromethyl)pyrimidin-2-yl]-2,3,4,9-tetrahydro-1H-pyrido[3,4-b]indole] had an IC50 (Homo sapiens) of 4.1 nM.

Under “Homo sapiens”, `CC(C)c1ccc(C2c3[nH]c4cc(F)c(Cl)cc4c3CCN2c2ncc(F)cn2)cc1` (centres unmarked) [Compound 50, 6-chloro-7-fluoro-2-(5-fluoropyrimidin-2-yl)-1-[4-(propan-2-yl)phenyl]-2,3,4,9-tetrahydro-1H-pyrido[3,4-b]indole] came in with a 50% inhibitory concentration (IC50) of 24.7 nM.

Consider `Cc1ccc(C2c3[nH]c4ccc(Cl)cc4c3CCN2c2nccc(C)n2)cc1` (centres unmarked) [Compound 332, 6-chloro-1-(4-methylphenyl)-2-(4-methylpyrimidin-2-yl)-2,3,4,9-tetrahydro-1H-pyrido[3,4-b]indole], for which the IC50 (Homo sapiens) was 11.8 nM.

On to `Cc1ccc([C@H]2c3[nH]c4ccc([N+](=O)[O-])cc4c3CCN2c2nc(C(F)(F)F)nc(C(F)(F)F)n2)c(F)c1F` [Compound 527, (1S)-2-[4,6-bis(trifluoromethyl)-1,3,5-triazin-2-yl]-1-(2,3-difluoro-4-methylphenyl)-6-nitro-2,3,4,9-tetrahydro-1H-pyrido[3,4-b]indole], for which, under “Homo sapiens”, the IC50 is 0.6 nM.

Take `Cc1nc(C)nc(N2CCc3c([nH]c4ccc(Cl)cc34)C2c2cnc(N3CC4CC3CO4)nc2)n1` (centres unmarked) [Compound 336, 6-chloro-2-(4,6-dimethyl-1,3,5-triazin-2-yl)-1-[2-(2-oxa-5-azabicyclo[2.2.1]heptan-5-yl)pyrimidin-5-yl]-2,3,4,9-tetrahydro-1H-pyrido[3,4-b]indole]: inhibition (Homo sapiens) was half-maximal at 52.2 nM (IC50).

As for `CN(C)c1ncc(C2c3[nH]c4cc(F)c(Cl)cc4c3CCN2c2ncc(Cl)cn2)cn1` (centres unmarked) [Compound 102, 5-[6-chloro-2-(5-chloropyrimidin-2-yl)-7-fluoro-2,3,4,9-tetrahydro-1H-pyrido[3,4-b]indol-1-yl]-N,N-dimethylpyrimidin-2-amine], the half-inhibitory concentration (IC50) (Homo sapiens) stood at 19.6 nM.

`Cc1nc(N2CCc3c([nH]c4ccc(Cl)cc34)[C@@H]2c2ccc(C)c(F)c2F)nc(C(F)(F)F)n1` [Compound 464, (1S)-6-chloro-1-(2,3-difluoro-4-methylphenyl)-2-[4-methyl-6-(trifluoromethyl)-1,3,5-triazin-2-yl]-2,3,4,9-tetrahydro-1H-pyrido[3,4-b]indole]: half-maximal inhibition (Homo sapiens) (IC50) required 0.2 nM.

The compound `NS(=O)(=O)c1ccc(C2c3[nH]c4cc(F)c(Cl)cc4c3CCN2c2nccc(C(F)(F)F)n2)cc1` (centres unmarked) [Compound 115, 4-{6-chloro-7-fluoro-2-[4-(trifluoromethyl)pyrimidin-2-yl]-2,3,4,9-tetrahydro-1H-pyrido[3,4-b]indol-1-yl}benzene-1-sulfonamide] gave an IC50 (Homo sapiens) of 9.4 nM.

The compound `Cc1ccc(C2c3[nH]c4ccc(-n5nccn5)cc4c3CCN2c2nccc(C(F)(F)F)n2)cc1` (centres unmarked) [Compound 287, 1-(4-methylphenyl)-6-(2H-1,2,3-triazol-2-yl)-2-[4-(trifluoromethyl)pyrimidin-2-yl]-2,3,4,9-tetrahydro-1H-pyrido[3,4-b]indole] registered an IC50 (Homo sapiens) of 2.9 nM.

With `FC(F)(F)c1ccnc(N2CCc3c([nH]c4ccc(Cl)cc34)C2c2ccc(N3CCOCC3)cc2)n1` (centres unmarked) [Compound 262, 6-chloro-1-[4-(morpholin-4-yl)phenyl]-2-[4-(trifluoromethyl)pyrimidin-2-yl]-2,3,4,9-tetrahydro-1H-pyrido[3,4-b]indole], the IC50 (Homo sapiens) turned out to be 1.3 nM.

`Cc1ccc(C2c3[nH]c4c(O)cc(Cl)cc4c3CCN2c2nccc(C(F)(F)F)n2)cc1` (centres unmarked) [Compound 207, 6-chloro-1-(4-methylphenyl)-2-[4-(trifluoromethyl)pyrimidin-2-yl]-2,3,4,9-tetrahydro-1H-pyrido[3,4-b]indol-8-ol] gave an IC50 (Homo sapiens) of 2.2 nM.

Take `CSc1nc(N2CCc3c([nH]c4ccc(Cl)cc34)[C@@H]2c2cnc(N3CCN(C)CC3)nc2)nc(C(F)(F)F)n1` [Compound 474, (1S)-6-chloro-1-[2-(4-methylpiperazin-1-yl)pyrimidin-5-yl]-2-[4-(methylsulfanyl)-6-(trifluoromethyl)-1,3,5-triazin-2-yl]-2,3,4,9-tetrahydro-1H-pyrido[3,4-b]indole]: the half-maximal inhibitory concentration (IC50) (Homo sapiens) was determined as 2.1 nM.

Compound `Cc1ccnc(N2CCc3c([nH]c4c(N)cc(Cl)cc34)C2c2ccc(N3CCOCC3)nc2)n1` (centres unmarked) [Compound 351, 6-chloro-2-(4-methylpyrimidin-2-yl)-1-[6-(morpholin-4-yl)pyridin-3-yl]-2,3,4,9-tetrahydro-1H-pyrido[3,4-b]indol-8-amine] returned an IC50 (Homo sapiens) of 2.1 nM.

`COCCOc1ncc(C2c3[nH]c4ccc(Cl)cc4c3CCN2c2nc(C(F)(F)F)nc(C(F)(F)F)n2)cn1` (centres unmarked) [Compound 536, 2-[4,6-bis(trifluoromethyl)-1,3,5-triazin-2-yl]-6-chloro-1-[2-(2-methoxyethoxy)pyrimidin-5-yl]-2,3,4,9-tetrahydro-1H-pyrido[3,4-b]indole]: the IC50 (Homo sapiens) is 1.2 nM. Compared with the last compound, the IC50 is about 1.8-fold lower.

As to `CN1CCN(c2ncc([C@H]3c4[nH]c5ccc(-n6nccn6)cc5c4CCN3c3nc(C(F)(F)F)nc(C(F)(F)F)n3)cn2)CC1` [Compound 501, (1S)-2-[4,6-bis(trifluoromethyl)-1,3,5-triazin-2-yl]-1-[2-(4-methylpiperazin-1-yl)pyrimidin-5-yl]-6-(2H-1,2,3-triazol-2-yl)-2,3,4,9-tetrahydro-1H-pyrido[3,4-b]indole], half-maximal inhibition (Homo sapiens) (IC50) was put at 1.4 nM. The IC50 values of the last two compounds are within 1.5-fold of each other.

Take `OCc1ccc(C2c3[nH]c4cc(F)c(Cl)cc4c3CCN2c2nccc(C(F)(F)F)n2)cc1` (centres unmarked) [Compound 166, (4-{6-chloro-7-fluoro-2-[4-(trifluoromethyl)pyrimidin-2-yl]-2,3,4,9-tetrahydro-1H-pyrido[3,4-b]indol-1-yl}phenyl)methanol]: 7.1 nM corresponded to half-maximal inhibition (Homo sapiens) (IC50).

In turn, `Fc1cc(-n2ccnc2)ccc1C1c2[nH]c3ccc(Cl)cc3c2CCN1c1ncccn1` (centres unmarked) [Compound 274, 6-chloro-1-[2-fluoro-4-(1H-imidazol-1-yl)phenyl]-2-(pyrimidin-2-yl)-2,3,4,9-tetrahydro-1H-pyrido[3,4-b]indole] displayed a half-inhibitory concentration (IC50) (Homo sapiens) of 58.5 nM.

Under “Homo sapiens”, `Fc1cnc(N2CCc3c([nH]c4cc(F)c(Cl)cc34)C2c2cccc(F)c2F)nc1` (centres unmarked) [Compound 36, 6-chloro-1-(2,3-difluorophenyl)-7-fluoro-2-(5-fluoropyrimidin-2-yl)-2,3,4,9-tetrahydro-1H-pyrido[3,4-b]indole] yielded a half-inhibitory concentration (IC50) of 23.4 nM.

Consider `N#Cc1ncnc(N2CCc3c([nH]c4ccc(Cl)cc34)[C@@H]2c2cnc(N3CCOCC3)nc2)n1` [Compound 414, 4-{(1S)-6-chloro-1-[2-(morpholin-4-yl)pyrimidin-5-yl]-1,3,4,9-tetrahydro-2H-pyrido[3,4-b]indol-2-yl}-1,3,5-triazine-2-carbonitrile], for which the IC50 (Homo sapiens) is 38 nM. This IC50 is about 1.6-fold higher than that of the compound before.
